{"source": "patent US5043179A", "about": "“Triol triester derivatives as low calorie fat mimetics” (Nabisco Brands, Inc., priority 1990, dated 1991)", "key": {"[1]": {"experiment": "caloric availability by in vivo animal feeding study (body weight gain)", "parameters": "species or system Sprague-Dawley rats", "conditions": "rats, diet of 50% fort and 21% test compound, 14 days", "from_the_text": "This example illustrates how the triol triesters of this invention are screened for caloric availability by a carefully controlled in vivo animal feeding study.\nAn experimental relationship between total calories ingested and animal body weight gain is established by monitoring the body weight gain associated with consumption of a nutritionally balanced diet containing varying concentrations of a reference substance such as corn oil which has a known caloric availability. Correlations between total calories ingested and body weight gain are excellent (r=0.99).\nCaloric availability of an unknown substance is evaluated by substituting a specific weight of the unknown substance for the reference substance and observing the body weight gain. The gain in body weight is equated to a total number of calories using the correlation previously established for the reference data. The estimated number of calories ingested are divided by the weight of unknown substance to give the apparent calories per gram for the unknown substance. Generally speaking, in these bioavailability studies, the degree of perianal pelt soiling correlates with reduced bioavailability.\nThe test animals are six-week-old male Sprague-Dawley rats obtained from the Portage, Michigan facility of the Charles River Laboratories, Inc. After acclimation for 15 days, the test duration is 14 days. […]"}, "[2]": {"experiment": "in vitro digestibility screen using pancreatic lipase (TLC analysis)", "type": "in vitro ADME, porcine", "conditions": "pig, two-hour incubation, 37° C., pH 7.1, TLC, read-out: hydrolyzed by pancreatic lipase", "protocol": "This example outlines the procedure for screening the in vitro digestibility of the triester derivatives of this invention using pancreatic lipase.\n(§1) 1. Buffer: A pH 7.1 phosphate buffer is prepared by dissolving 6.8 g. KH2 PO4 in 1 L. of millipore filtered water (to yield 0.05 M phosphate). Fifty mg. Ca(NO3)2 and 5.0 g. cholic acid (Na^+ salt, an ox bile isolate from Sigma) are added to give 0.3 mM Ca++ and 0.5% cholic acid in 0.05 M phosphate. The pH is adjusted to approximately 7.1 with solid NaOH. Several drops of Baker \"Resi-analyzed \" toluene are added to prevent bacterial growth during storage at 3°-5° C.\n(§2) 2. Lipase: About 15 mg/mL commercial porcine pancreatic lipase from U.S. Biochemical Corporation is dissolved in buffer.\n3. Substrates and Standards: A 1.0 mL volumetric flask is charged with an amount of lipid substrate (test substance or standard) calculated to give a concentration of 200 nanomoles per microliter in Baker \"Resi-analyzed \" toluene. (The proper concentration may be approximated by doubling the molecular weight of the lipid in question, dividing by 10, and diluting to the mark; this yields about 200 nanomoles per microliter.) This preparation affords the substrate to be used in the hydrolysis reactions. […]"}, "[3]": {"experiment": "lipase assay as in Example 7, with super fluid chromatography to separate hydrolysis products", "type": "in vitro ADME, porcine", "conditions": "pig, pancreatic lipase, pH 7.1, one hour incubation, read-out: hydrolyzed by pancreatic lipase", "protocol": "as §1, §2\n(§3) 3. Substrates and Standards: A 1.0 mL volumetric flask is charged with an amount of lipid substrate (test substance or standard) calculated to give a concentration of 200 nanomoles per microliter in Baker \"Resi-analyzed \" toluene. (The proper concentration may be approximated by doubling the molecular weight of the lipid in question, dividing by 10, and diluting to the mark; this yields about 200 nanomoles per microliter.) This preparation affords the substrate to be used in the hydrolysis reactions.\n(§4) In a 25 mL Erlenmeyer, emulsify 20 mL buffer and 40 microliters of substrate using an ultrasonic disrupter at a microtip maximum setting for approximately 10 seconds. […] Place in a 37° C. water bath and stir vigorously. After temperature equilibration, add 40 microliters of enzyme solution and start timing. […]"}, "[4]": {"conditions": "cited from earlier work"}, "[5]": {"conditions": "fed to rats; cited from earlier work"}, "nonspecific lipase": {"test_system": "nonspecific lipase", "conditions": "pancreatic lipase inhibited by taurocholate; cited from earlier work"}, "pancreatic lipase": {"test_system": "pancreatic lipase", "experiment": "lipase assay as in Example 7, with super fluid chromatography to separate hydrolysis products", "type": "in vitro ADME, porcine", "conditions": "one hour incubation", "protocol": "as §1, §2, §3, §4"}}, "data": [{"smiles": "CCCCCCCC/C=C\\CCCCCCCC(=O)OCCC(COC(=O)CCCCCCC/C=C\\CCCCCCCC)OC(=O)CCCCCCC/C=C\\CCCCCCCC", "note": "(stereo not shown) [Example 4, 1,2,4-Butane trioleate]", "values": [{"measurement": "caloric availability (kcal/gram yielded upon being metabolized)", "setting": "[1]", "value": "about 7.7 kcal/gram"}, {"measurement": "metabolised at 2 h", "setting": "[2]", "value": "~50", "unit": "%"}]}, {"smiles": "CCCCCCCCCCCCCC(=O)OCCCCC(COC(=O)CCCCCCCCCCCCC)OC(=O)CCCCCCCCCCCCC", "note": "(stereo not shown) [Example 5, 1,2,6-hexane trimyristate]", "values": [{"measurement": "metabolised at 1 h", "setting": "[3]", "value": "~20", "unit": "%"}]}, {"smiles": "CCCCCCCC/C=C\\CCCCCCCC(=O)OC[C@H](OC(=O)CCCCCCC/C=C\\CCCCCCCC)[C@@H](COC(=O)CCCCCCC/C=C\\CCCCCCCC)OC(=O)CCCCCCC/C=C\\CCCCCCCC", "note": "[erythritol tetraoleate]", "values": [{"measurement": "hydrolysis in vivo (free tagged erythritol in urine)", "setting": "[4]; rats", "value": "hydrolyzed in vivo"}, {"measurement": "rate of appearance of fatty acids in the lymph", "setting": "[4]; thoracic duct cannulated rats", "value": "slower rate than glycerol trioleate"}, {"measurement": "absorption in fat balance study", "setting": "[5]", "value": "absorbability decreased"}, {"measurement": "hydrolysis by nonspecific lipase", "setting": "nonspecific lipase", "value": "stepwise hydrolysis"}]}, {"smiles": "CCCCCCCC/C=C\\CCCCCCCC(=O)OCCOC(=O)CCCCCCC/C=C\\CCCCCCCC", "note": "[ethylene glycol dioleate]", "values": [{"measurement": "absorption in fat balance study", "setting": "[5]", "value": "absorbed"}, {"measurement": "hydrolysis by nonspecific lipase", "setting": "nonspecific lipase", "value": "hydrolyze"}]}, {"smiles": "CCCCCCCC/C=C\\CCCCCCCC(=O)OC", "note": "[methyl oleate]", "values": [{"measurement": "absorption in fat balance study", "setting": "[5]", "value": "absorbed"}, {"measurement": "hydrolysis by nonspecific lipase", "setting": "nonspecific lipase", "value": "hydrolyze"}]}, {"smiles": "CCCCCCCC/C=C\\CCCCCCCC(=O)OCC(COC(=O)CCCCCCC/C=C\\CCCCCCCC)(COC(=O)CCCCCCC/C=C\\CCCCCCCC)COC(=O)CCCCCCC/C=C\\CCCCCCCC", "note": "[pentaerythritol tetraoleate]", "values": [{"measurement": "absorption in fat balance study", "setting": "[5]", "value": "absorbability decreased"}]}, {"smiles": "CCCCCCCC/C=C\\CCCCCCCC(=O)OC[C@H](OC(=O)CCCCCCC/C=C\\CCCCCCCC)[C@@H](OC(=O)CCCCCCC/C=C\\CCCCCCCC)[C@H](OC(=O)CCCCCCC/C=C\\CCCCCCCC)[C@@H](COC(=O)CCCCCCC/C=C\\CCCCCCCC)OC(=O)CCCCCCC/C=C\\CCCCCCCC", "note": "[sorbitol hexaoleate]", "values": [{"measurement": "absorption in fat balance study", "setting": "[5]", "value": "not absorbed"}]}, {"smiles": "CCCCCCCC/C=C\\CCCCCCCC(=O)OC[C@H]1O[C@@](COC(=O)CCCCCCC/C=C\\CCCCCCCC)(O[C@H]2O[C@H](COC(=O)CCCCCCC/C=C\\CCCCCCCC)[C@@H](OC(=O)CCCCCCC/C=C\\CCCCCCCC)[C@H](OC(=O)CCCCCCC/C=C\\CCCCCCCC)[C@H]2OC(=O)CCCCCCC/C=C\\CCCCCCCC)[C@@H](OC(=O)CCCCCCC/C=C\\CCCCCCCC)[C@@H]1OC(=O)CCCCCCC/C=C\\CCCCCCCC", "note": "[sucrose octaoleate]", "values": [{"measurement": "absorption in fat balance study", "setting": "[5]", "value": "not absorbed"}]}, {"smiles": "CCCCCCCCCCCCCC(=O)OCC(COC(=O)CCCCCCCCCCCCC)OC(=O)CCCCCCCCCCCCC", "note": "[trimyristin]", "values": [{"measurement": "hydrolysis by pancreatic lipase (in words)", "setting": "pancreatic lipase", "value": "almost fully hydrolyzed"}]}, {"smiles": "CCCCCCCC/C=C\\CCCCCCCC(=O)OCC(COC(=O)CCCCCCC/C=C\\CCCCCCCC)OC(=O)CCCCCCC/C=C\\CCCCCCCC", "note": "[triolein]", "values": [{"measurement": "absorption in fat balance study", "setting": "[5]", "value": "absorbed"}, {"measurement": "hydrolysis by nonspecific lipase", "setting": "nonspecific lipase", "value": "hydrolyze"}, {"measurement": "metabolised at 2 h", "setting": "[2]", "value": "~90", "unit": "%"}]}, {"smiles": "CCCCCCCC/C=C\\CCCCCCCC(=O)OC[C@H](OC(=O)CCCCCCC/C=C\\CCCCCCCC)[C@@H](OC(=O)CCCCCCC/C=C\\CCCCCCCC)[C@@H](COC(=O)CCCCCCC/C=C\\CCCCCCCC)OC(=O)CCCCCCC/C=C\\CCCCCCCC", "note": "[xylitol pentaoleate]", "values": [{"measurement": "absorption in fat balance study", "setting": "[5]", "value": "absorbability decreased"}]}]}
